Measurements as given in patent US20180273534A1, “PYRAZOLOPYRIDINE SULFONAMIDES AS NEMATICIDES” (BAYER CROPSCIENCE AKTIENGESELLSCHAFT, priority 2014, published 2018).

Each compound was assayed on Myzus persicae (assay: Myzus persicae spray test). Details: application rate 500 g/ha; after 6 days; sprayed Chinese cabbage leaf disks; 100% = all aphids killed.
Format: in vivo
Method: Myzus Persicae—Spray Test
(§1) Solvent: 78.0 parts by weight acetone • 1.5 parts by weight dimethylformamide
(§2) Emulsifier: alkylarylpolyglycol ether
(§3) To produce a suitable preparation of active compound, 1 part by weight of active compound is mixed with the stated amount of solvents and is diluted with water, containing an emulsifier concentration of 1000 ppm, to the desired concentration. Further test concentrations are prepared by dilution with emulsifier containing water.
Chinese cabbage (Brassica pekinensis) leaf disks infected with all instars of the green peach aphid (Myzus persicae), are sprayed with a preparation of the active ingredient of the desired concentration.
After 6 days mortality in % is determined. 100% means all aphids have been killed and 0% means none of the aphids have been killed.

Structure (SMILES)	mortality [%]
O=C(NS(=O)(=O)c1ccccc1Cl)c1cc2cc(Cl)cc(Cl)n2n1 [Example I-46]	90
CS(=O)(=O)NC(=O)c1cc2c(Cl)cc(C(F)(F)F)cn2n1 [Example I-15]	100

What follows are compounds tested on Tetranychus urticae (assay: Tetranychus urticae spray test OP-resistant). Details: application rate 500 g/ha, after 6 days, sprayed French bean leaf disks, 100% = all spider mites killed.
Format: in vivo
Method: Tetranvechus urticae—spray test OP-resistant
as §1, §2, §3
French bean (Phaseolus vulgaris) leaf disks which are heavily infested with all stages of the two spotted spidermite (Tetranychus urticae), are sprayed with a preparation of the active ingredient of the desired concentration.
After 6 days mortality in % is determined. 100% means all spider mites have been killed and 0% means none of the spider mites have been killed.

Structure (SMILES)	mortality [%]
CS(=O)(=O)NC(=O)c1cc2c(Cl)cc(C(F)(F)F)cn2n1 [Example I-15]	85

These compounds were tested on Meloidogyne incognita (assay: Meloidogyne incognita test (soil drench, loamy sand, gall formation)). Details: application rate 8 ppm, after 21 days, salad seedlings, 100% = no galls.
Format: in vivo
Method: Meloidogyne incognita—Test
Solvent: 7 parts by weight of dimethylformamide
Emulsifier: 2.5 parts by weight of alkylarylpolyglycolether
To produce a suitable preparation of active compound, 1 part by weight of active compound is mixed with the stated amount of solvent and emulsifier and is diluted with water to the desired concentration. In the calculation of the concentration the soil volume has to be included. […] Further test concentrations are prepared by dilution with water.
The compound solution is poured into pots filled with soil (loamy sand). A suspension containing eggs and larvae of the southern root-knot nematode (Meloidogyne incognita) is added, salad seeds are spread on the soil surface and covered with quartz sand. The salad seeds germinate and the seedlings grow. Galls develop on the roots.
After 21 days the nematicidal activity is determined on the basis of the percentage of gall formation. 100% means no galls were found; 0% means the number of galls found on the roots of the treated plants was equal to that in untreated control plants.

Structure (SMILES)	nematicidal activity on the basis of the percentage of gall formation [%]
O=C(NS(=O)(=O)c1cc(Cl)ccc1Cl)c1cc2cc(Cl)cc(Cl)n2n1 [Example I-47]	80

These compounds were tested on Meloidogyne incognita (assay: Meloidogyne incognita test (sand, salad seedlings, gall formation)). Details: application rate 20 ppm, after 14 days, 100% = no galls, 0% = galls equal to untreated control.
Format: in vivo
Method: Meloidogyne Incognita—Test
Solvent: 125.0 parts by weight of acetone
To produce a suitable preparation of active compound, 1 part by weight of active compound is mixed with the stated amount of solvent, and the concentrate is diluted with water to the desired concentration.
Vessels are filled with sand, a solution of the active ingredient, a suspension containing eggs and larvae of the southern root-knot nematode (Meloidogyne incognita) and salad seeds. The salad seeds germinate and the seedlings grow. Galls develop in the roots.
After 14 days the nematicidal activity is determined on the basis of the percentage of gall formation. 100% means no galls were found and 0% means the number of galls found on the roots of the treated plants was equal to that in untreated control plants.

Structure (SMILES)	nematicidal activity on the basis of the percentage of gall formation [%]
O=C(NS(=O)(=O)c1ccccc1Cl)c1cc2cc(Cl)cc(Cl)n2n1 [Example I-46]	90
CS(=O)(=O)NC(=O)c1cc2c(Cl)cc(C(F)(F)F)cn2n1 [Example I-15]	90
CCc1ccc(Cl)c(S(=O)(=O)NC(=O)c2cc3cc(C(F)(F)F)ccn3n2)c1 [Example I-36]	100
O=C(NS(=O)(=O)c1cc(Cl)ccc1Cl)c1cc2cc(C(F)(F)F)ccn2n1 [Example I-26]	100
O=C(NS(=O)(=O)c1c(F)cccc1Cl)c1cc2cc(C(F)(F)F)cc(Cl)n2n1 [Example I-65]	100
Cc1ccccc1S(=O)(=O)NC(=O)c1cc2c(Cl)cc(C(F)(F)F)cn2n1 [Example I-10]	90
CC(C)Sc1cccc(Cl)c1S(=O)(=O)NC(=O)c1cc2cc(C(F)(F)F)ccn2n1 [Example I-41]	100
CCOc1ccc(Cl)c(S(=O)(=O)NC(=O)c2cc3cc(C(F)(F)F)ccn3n2)c1 [Example I-34]	100
CCc1ccc(C)c(S(=O)(=O)NC(=O)c2cc3cc(C(F)(F)F)cc(Cl)n3n2)c1 [Example I-77]	100
CSc1cccc(Cl)c1S(=O)(=O)NC(=O)c1cc2cc(Cl)cc(Cl)n2n1 [Example I-76]	90
COc1ccc(Cl)c(S(=O)(=O)NC(=O)c2cc3cc(C(F)(F)F)ccn3n2)c1 [Example I-27]	100
COc1ccccc1S(=O)(=O)NC(=O)c1cc2c(Cl)cc(C(F)(F)F)cn2n1 [Example I-8]	90
O=C(NS(=O)(=O)c1cc(Cl)ccc1Cl)c1cc2ccc(C(F)(F)F)cn2n1 [Example I-51]	90
O=C(NS(=O)(=O)C1CC1)c1cc2c(Cl)cc(C(F)(F)F)cn2n1 [Example I-17]	100
CCc1ccc(C)c(S(=O)(=O)NC(=O)c2cc3cc(Cl)cc(Cl)n3n2)c1 [Example I-75]	100
CCOc1ccc(Cl)c(S(=O)(=O)NC(=O)c2cc3cc(C(F)(F)F)cc(Cl)n3n2)c1 [Example I-44]	90
CSc1cccc(Cl)c1S(=O)(=O)NC(=O)c1cc2cc(C(F)(F)F)ccn2n1 [Example I-39]	100
O=C(NS(=O)(=O)c1cc(C(F)(F)F)ccc1Br)c1cc2cc(C(F)(F)F)ccn2n1 [Example I-73]	100
CCCOc1ccc(Cl)c(S(=O)(=O)NC(=O)c2cc3cc(C(F)(F)F)ccn3n2)c1 [Example I-35]	100
COc1ccc(Cl)c(S(=O)(=O)NC(=O)c2cc3cc(C(F)(F)F)cc(Cl)n3n2)c1 [Example I-23]	100
CCCOc1ccc(Cl)c(S(=O)(=O)NC(=O)c2cc3cc(Cl)cc(Cl)n3n2)c1 [Example I-58]	100
